Results published in PubChem BioAssay AID248 (DTP/NCI, 2004).
Where “and” joins values, the source holds several entries; their conditions need not be identical. Equal values may be shown once. Toxic doses and inconclusive results are not listed. No stated cut-off is given here; in the data, active means T/C of 150% or more; inactive means T/C below 125%. Numbered stars: 1 amine (or outer) side, 2 acyl side, 3 side chain; on linkers, the order of the positions; unused ones are H or OH. Bridge positions count the residues as written; N and C are the ends. Square brackets hold non-standard residues; d marks the D form. Peptide text beside a SMILES is read from it. I, II: the chains in the order shown. Actinocin(9to1) = Cc1c2oc3c(C)ccc(C(=O)[*:1])c3nc-2c(C(=O)[*:2])c(N)c1=O; NMeV = CN[CH](C(=O)O)C(C)C; Pip = O=C(O)[CH]1CCCCN1; Sar = CNCC(=O)O

Tested on: L1210 leukemia ip in BDF1 mice, survival T/C
Experiment: NCI In Vivo Anticancer Drug Screen. Data for tumor model L1210 Leukemia (intraperitoneal) in B6D2F1 (BDF1) mice
Conditions: endpoint: mean survival time, higher = longer survival
Summary of the method: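 Antitumor effect is assessed in tumor-bearing animals. Survival in the compound arm is compared with a vehicle-dosed control arm and expressed as their quotient.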

[1] = dose: 100.0 mg/kg/injection, schedule: Q01DX009 (ip), vehicle: Klucel (hydroxypropylcellulose) (HPC)
[2] = dose: 100.0 mg/kg/injection, schedule: Q04DX003 (ip), vehicle: Klucel (hydroxypropylcellulose) (HPC)
[3] = dose: 200.0 mg/kg/injection, schedule: Q04DX003 (ip), vehicle: Klucel (hydroxypropylcellulose) (HPC)
[4] = dose: 200.0 mg/kg/injection, schedule: Q01DX009 (ip), vehicle: Klucel (hydroxypropylcellulose) (HPC)
[5] = dose: 400.0 mg/kg/injection, schedule: Q01DX009 (ip), vehicle: Klucel (hydroxypropylcellulose) (HPC)
[6] = dose: 100.0 mg/kg/injection, schedule: Q01DX001 (ip), vehicle: saline

Measured: T/C

Cc1nc(-c2ccccc2)c(-c2ccccc2)[nH]1
inactive: dose: 50.0 mg/kg/injection, schedule: Q01DX009 (ip), vehicle: Klucel (hydroxypropylcellulose) (HPC) 99 % of control | dose: 66.0 mg/kg/injection, schedule: Q01DX009 (ip), vehicle: Klucel (hydroxypropylcellulose) (HPC) 113 % of control | [1] 111 % of control | [2] 101 % of control | dose: 150.0 mg/kg/injection, schedule: Q01DX009 (ip), vehicle: Klucel (hydroxypropylcellulose) (HPC) 92 % of control | [3] 101 % of control

COc1cc(/C=N/NC(=O)C[n+]2ccccc2)cc(OC)c1
inactive: dose: 25.0 mg/kg/injection, schedule: Q01DX009 (ip), vehicle: saline 119 % of control | dose: 50.0 mg/kg/injection, schedule: Q01DX009 (ip), vehicle: saline 103 % of control | dose: 100.0 mg/kg/injection, schedule: Q01DX009 (ip), vehicle: saline 116 % of control | dose: 100.0 mg/kg/injection, schedule: Q04DX003 (ip), vehicle: saline 96 % of control

Cc1ccc([N+](=O)[O-])cc1NC(=O)N1CCCCC1C (configuration not stated)
inactive: dose: 100.0 mg/kg/injection, schedule: Q01DX001 (ip), vehicle: Klucel (hydroxypropylcellulose) (HPC) 97 % of control | [1] 106 % of control and 90 % of control | dose: 100.0 mg/kg/injection, schedule: Q04DX002 (ip), vehicle: Klucel (hydroxypropylcellulose) (HPC) 97 % of control and 102 % of control | [2] 100 % of control | dose: 200.0 mg/kg/injection, schedule: Q01DX001 (ip), vehicle: Klucel (hydroxypropylcellulose) (HPC) 111 % of control | [4] 92 % of control and 97 % of control | dose: 200.0 mg/kg/injection, schedule: Q04DX002 (ip), vehicle: Klucel (hydroxypropylcellulose) (HPC) 97 % of control and 104 % of control | [3] 88 % of control | dose: 400.0 mg/kg/injection, schedule: Q01DX001 (ip), vehicle: Klucel (hydroxypropylcellulose) (HPC) 101 % of control | [5] 108 % of control and 87 % of control | dose: 400.0 mg/kg/injection, schedule: Q04DX002 (ip), vehicle: Klucel (hydroxypropylcellulose) (HPC) 93 % of control and 102 % of control | dose: 400.0 mg/kg/injection, schedule: Q04DX003 (ip), vehicle: Klucel (hydroxypropylcellulose) (HPC) 104 % of control

COc1ccc(OC)c(NC(=O)Nc2cc(Cl)ccc2C)c1
inactive: [1] 89 % of control | [4] 93 % of control

C/C(=N\n1c(-c2ccccc2)nc2ccccc2c1=O)c1ccc(C)cc1
inactive: [1] 98 % of control | [4] 96 % of control | [5] 100 % of control

C=CCC1(/C(C)=C/C)C(=O)NC(=O)NC1=O
inactive: dose: 75.0 mg/kg/injection, schedule: Q01DX001 (ip), vehicle: saline 100 % of control | dose: 150.0 mg/kg/injection, schedule: Q01DX001 (ip), vehicle: saline 94 % of control

CC(O)c1ccc2c(c1)Nc1ccccc1S2 (configuration not stated)
inactive: dose: 100.0 mg/kg/injection, schedule: Q04DX002 (ip), vehicle: saline with Tween-80 91 % of control | dose: 200.0 mg/kg/injection, schedule: Q04DX002 (ip), vehicle: saline with Tween-80 105 % of control | dose: 400.0 mg/kg/injection, schedule: Q04DX002 (ip), vehicle: saline with Tween-80 91 % of control

S=c1[nH]n(-c2ccccc2)c(=S)s1
inactive: [6] 100 % of control | dose: 200.0 mg/kg/injection, schedule: Q01DX001 (ip), vehicle: saline 105 % of control

O=C1C=CC(=O)N1c1cccc2c(N3C(=O)C=CC3=O)cccc12
inactive: dose: 11.1 mg/kg/injection, schedule: Q01DX Z (ip), vehicle: methylcellulose (MC) 89 % of control | dose: 16.6 mg/kg/injection, schedule: Q01DX Z (ip), vehicle: methylcellulose (MC) 95 % of control | dose: 25.0 mg/kg/injection, schedule: Q01DX Z (ip), vehicle: methylcellulose (MC) 104 % of control

ClCC1(CCl)COC(c2ccccc2)OC1
inactive: dose: 100.0 mg/kg/injection, schedule: Q04DX003 (ip), vehicle: saline with Tween-80 95 % of control | dose: 200.0 mg/kg/injection, schedule: Q04DX003 (ip), vehicle: saline with Tween-80 93 % of control | dose: 400.0 mg/kg/injection, schedule: Q04DX003 (ip), vehicle: saline with Tween-80 92 % of control

COc1ccc(/C=N\N/C(N)=N\N=C\c2ccc(OC)cc2)cc1
inactive: dose: 15.0 mg/kg/injection, schedule: Q01DX Z (ip), vehicle: carboxymethylcellulose (CMC) 89 % of control | dose: 30.0 mg/kg/injection, schedule: Q01DX Z (ip), vehicle: carboxymethylcellulose (CMC) 97 % of control | dose: 60.0 mg/kg/injection, schedule: Q01DX Z (ip), vehicle: carboxymethylcellulose (CMC) 93 % of control and 101 % of control | dose: 120.0 mg/kg/injection, schedule: Q01DX Z (ip), vehicle: carboxymethylcellulose (CMC) 92 % of control | dose: 240.0 mg/kg/injection, schedule: Q01DX Z (ip), vehicle: carboxymethylcellulose (CMC) 100 % of control | dose: 240.0 mg/kg/injection, schedule: Q01DX Z (oral), vehicle: carboxymethylcellulose (CMC) 107 % of control | dose: 480.0 mg/kg/injection, schedule: Q01DX Z (ip), vehicle: carboxymethylcellulose (CMC) 90 % of control | dose: 480.0 mg/kg/injection, schedule: Q01DX Z (oral), vehicle: carboxymethylcellulose (CMC) 105 % of control | dose: 960.0 mg/kg/injection, schedule: Q01DX Z (oral), vehicle: carboxymethylcellulose (CMC) 104 % of control | dose: 1920.0 mg/kg/injection, schedule: Q01DX Z (oral), vehicle: carboxymethylcellulose (CMC) 102 % of control

Cc1cc(-c2ccccc2)c2c(C#N)cn(-c3cccc(Cl)c3)c2n1
inactive: dose: 100.0 mg/kg/injection, schedule: Q01DX001 (ip), vehicle: saline with Tween-80 92 % of control | [6] 87 % of control | dose: 200.0 mg/kg/injection, schedule: Q01DX001 (ip), vehicle: saline with Tween-80 106 % of control | dose: 400.0 mg/kg/injection, schedule: Q01DX001 (ip), vehicle: saline with Tween-80 92 % of control | dose: 400.0 mg/kg/injection, schedule: Q01DX001 (ip), vehicle: saline 102 % of control

O=C(c1ccc(O)c(C(=O)O)c1)c1ccc(O)c(C(=O)O)c1
inactive: dose: 100.0 mg/kg/injection, schedule: Q01DX001 (ip), vehicle: carboxymethylcellulose (CMC) 95 % of control | dose: 200.0 mg/kg/injection, schedule: Q01DX001 (ip), vehicle: carboxymethylcellulose (CMC) 95 % of control | dose: 400.0 mg/kg/injection, schedule: Q01DX001 (ip), vehicle: carboxymethylcellulose (CMC) 101 % of control

CC1(C)N=C(N)N=C(N)N1c1ccc(C(F)(F)F)cc1
inactive: dose: 25.0 mg/kg/injection, schedule: Q01DX001 (ip), vehicle: saline 107 % of control | dose: 50.0 mg/kg/injection, schedule: Q01DX001 (ip), vehicle: saline 117 % of control | [6] 103 % of control and 107 % of control

COC(=O)N1C(N2CCCC2=O)C(C)(C)S1(=O)=O (configuration not stated)
inactive: dose: 75.0 mg/kg/injection, schedule: Q04DX003 (ip), vehicle: Klucel (hydroxypropylcellulose) (HPC) 102 % of control | dose: 150.0 mg/kg/injection, schedule: Q04DX003 (ip), vehicle: Klucel (hydroxypropylcellulose) (HPC) 94 % of control | dose: 300.0 mg/kg/injection, schedule: Q04DX003 (ip), vehicle: Klucel (hydroxypropylcellulose) (HPC) 89 % of control

Cc1c2oc3c(C)ccc(C(=O)NC4C(=O)NC(C(C)C)C(=O)N5CCCCC5C(=O)N(C)CC(=O)N(C)C(C(C)C)C(=O)OC4C)c3nc-2c(C(=O)NC2C(=O)NC(C(C)C)C(=O)N3CCCCC3C(=O)N(C)CC(=O)N(C)C(C(C)C)C(=O)OC2C)c(N)c1=O (configuration not stated) (I: TV[Pip][Sar][NMeV] / II: TV[Pip][Sar][NMeV]; ester I:1-I:C, II:1-II:C; linker I:N-II:N via Actinocin(9to1); configuration not given here)
inactive: dose: 0.5 mg/kg/injection, schedule: Q01DX001 (ip), vehicle: saline 105 % of control | dose: 0.5 mg/kg/injection, schedule: Q01DX009 (ip), vehicle: water 123 % of control | dose: 1.0 mg/kg/injection, schedule: Q01DX001 (ip), vehicle: saline 102 % of control | dose: 1.0 mg/kg/injection, schedule: Q01DX009 (ip), vehicle: water 104 % of control | dose: 1.8 mg/kg/injection, schedule: Q01DX001 (ip), vehicle: saline 116 % of control | dose: 2.0 mg/kg/injection, schedule: Q01DX001 (ip), vehicle: saline 112 % of control | dose: 2.6 mg/kg/injection, schedule: Q01DX001 (ip), vehicle: saline 109 % of control | dose: 6.0 mg/kg/injection, schedule: Q01DX001 (ip), vehicle: saline 103 % of control

Cc1cccc(NC(=O)Nc2cccc(C(F)(F)F)c2)n1
inactive: dose: 100.0 mg/kg/injection, schedule: Q01DX009 (ip), vehicle: gum acacia 92 % of control | dose: 200.0 mg/kg/injection, schedule: Q01DX009 (ip), vehicle: gum acacia 87 % of control | dose: 400.0 mg/kg/injection, schedule: Q01DX009 (ip), vehicle: gum acacia 89 % of control

CC1(c2ccc3ccccc3c2)OC(=O)c2ccccc21 (configuration not stated)
inactive: dose: 25.0 mg/kg/injection, schedule: Q01DX009 (ip), vehicle: saline with Tween-80 106 % of control | dose: 50.0 mg/kg/injection, schedule: Q01DX009 (ip), vehicle: saline with Tween-80 91 % of control
